Measured values reported in US11084800B2 (Achillion Pharmaceuticals, Inc., priority 2017, dated 2021).
pIC50: −log10 of the molar value.

Biological target: Human Factor D (Homo sapiens (Human), UniProt P00746)
Experiment: Human Factor D Assay
Format: biochemical
Conditions: Factor D inhibition, assay of Example 10; read-out: IC5 (Stars)
Procedure, shortened: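 Thioester substrate Z-L-Lys-SBz (100 μM) with Ellman's reagent DTNB (100 μM) reports activity of 80 nM human serum-derived enzyme, kinetically at 405 nm over 30 min. Compound preincubated 5 min, room temperature, pH 7.5 Tris/1 M NaCl; IC50 by nonlinear fit of rates.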

Human Factor D, sequence (P00746 26-253): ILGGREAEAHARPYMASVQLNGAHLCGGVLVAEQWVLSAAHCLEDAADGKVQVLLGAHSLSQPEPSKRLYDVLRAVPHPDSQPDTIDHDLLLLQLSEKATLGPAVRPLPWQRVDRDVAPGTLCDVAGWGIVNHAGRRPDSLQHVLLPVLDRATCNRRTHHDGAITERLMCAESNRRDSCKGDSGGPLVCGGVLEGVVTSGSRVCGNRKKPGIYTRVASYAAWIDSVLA

Question: CC(=O)c1nn(CC(=O)N2[C@H](C(=O)Nc3nc(Br)ccc3Cc3nn[nH]n3)C[C@@]3(C)C[C@@H]23)c2cnc(-c3cnc(C)nc3)cc12 [Compound 397, (1R, 3S, 5R)—N-(3-((2H-Tetrazol-5-yl)methyl)-6-bromopyridin-2-yl)-2-(2-(3-acetyl-5-(2-methylpyrimidin-5-yl)-1H-pyrazolo[3,4-c]pyridin-1-yl)acetyl)-5-methyl-2-azabicyclo[3.1.0]hexane-3-carboxamide] was tested. Which pIC50 did it give?
Answer: > 6.00

Question: CC(=O)c1nn(CC(=O)N2[C@H](C(=O)Nc3nc(Br)ccc3CN(C)C)C[C@@]3(C)C[C@@H]23)c2cc(Cl)c(-c3cnc(C)nc3)cc12 [Compound 399, (1R,3S,5R)-2-(2-(3-acetyl-6-chloro-5-(2-methylpyrimidin-5-yl)-1H-indazol-1-yl)acetyl)-N-(6-bromo-3-((dimethylamino)methyl)pyridin-2-yl)-5-methyl-2-azabicyclo[3.1.0]hexane-3-carboxamide] was tested. Which pIC50 did it give?
Answer: > 6.00

Question: CC(=O)c1nn(CC(=O)N2[C@H](C(=O)Nc3nc(Br)ccc3CCCN3CCOCC3)C[C@@]3(C)C[C@@H]23)c2cnc(-c3cnc(C)nc3)cc12 [Compound 400, (1R,3S,5R)-2-(2-(3-Acetyl-5-(2-methylpyrimidin-5-yl)-1H-pyrazolo[3,4-c]pyridin-1-yl)acetyl)-N-(6-bromo-3-(3-morpholinopropyl)pyridin-2-yl)-5-methyl-2-azabicyclo[3.1.0]hexane-3-carboxamide] was tested. Which pIC50 did it give?
Answer: > 6.00

Question: How did the pIC50 turn out when Cc1ncc(-c2cc3c(C(C)O)nn(CC(=O)N4[C@H](C(=O)Nc5nc(Br)ccc5C)C[C@@]5(C)C[C@@H]45)c3cn2)cn1 (stereo partly drawn) [Compound 402, (1R,3S,5R)-N-(6-bromo-3-methylpyridin-2-yl)-2-(2-(3-(1-hydroxyethyl)-5-(2-methylpyrimidin-5-yl)-1H-pyrazolo[3,4-c]pyridin-1-yl)acetyl)-5-methyl-2-azabicyclo[3.1.0]hexane-3-carboxamide] was run?
Answer: 5.00 to 6.00

Question: With Cc1ncc(-c2cc(C)c3c(c2)c(C#N)nn3CC(=O)N2[C@H](C(=O)Nc3nc(Br)ccc3C)C[C@@]3(C)C[C@@H]23)cn1 [Compound 407, (1R,3S,5R)-N-(6-bromo-3-methylpyridin-2-yl)-2-(2-(3-cyano-7-methyl-5-(2-methylpyrimidin-5-yl)-1H-indazol-1-yl)acetyl)-5-methyl-2-azabicyclo[3.1.0]hexane-3-carboxamide] as the compound, how does the pIC50 read?
Answer: > 6.00

Question: With CC(=O)c1nn(CC(=O)N2[C@H](C(=O)Nc3nc(Br)ccc3CN(C)C)C[C@@]3(C)C[C@@H]23)c2c(Cl)cc(-c3cnc(C)nc3)cc12 [Compound 408, (1R,3S,5R)-2-(2-(3-acetyl-7-chloro-5-(2-methylpyrimidin-5-yl)-1H-indazol-1-yl)acetyl)-N-(6-bromo-3-((dimethylamino)methyl)pyridin-2-yl)-5-methyl-2-azabicyclo[3.1.0]hexane-3-carboxamide] as the compound, how does the pIC50 read?
Answer: > 6.00

Question: How did the pIC50 turn out when CC(=O)c1nn(CC(=O)N2[C@H](C(=O)Nc3nc(Br)ccc3C)C[C@@]3(Cc4nc(C)no4)C[C@@H]23)c2c(CF)cc(-c3cnc(C)nc3)cc12 [Compound 409, (1R,3S,5R)-2-(2-(3-acetyl-7-(fluoromethyl)-5-(2-methylpyrimidin-5-yl)-1H-indazol-1-yl)acetyl)-N-(6-bromo-3-methylpyridin-2-yl)-5-((3-methyl-1,2,4-oxadiazol-5-yl)methyl)-2-azabicyclo[3.1.0]hexane-3-carboxamide] was run?
Answer: > 6.00

Question: CC(=O)c1nn(CC(=O)N2C[C@@](F)(CF)C[C@H]2C(=O)Nc2nc(Br)ccc2C)c2c(C)nc(-c3cnc(C)nc3)cc12 [Compound 410, (2S,4R)-1-(2-(3-acetyl-7-methyl-5-(2-methylpyrimidin-5-yl)-1H-pyrazolo[3,4-c]pyridin-1-yl)acetyl)-N-(6-bromo-3-methylpyridin-2-yl)-4-fluoro-4-(fluoromethyl)pyrrolidine-2-carboxamide] was tested. Which pIC50 did it give?
Answer: > 6.00

Question: CC(=O)c1nn(CC(=O)N2C[C@H]3C[C@H]3[C@H]2C(=O)NCc2cccc(Cl)c2F)c2c(C)nc(-c3cnc(C)nc3)cc12 [Compound 411, (1R,2S,5S)-3-(2-(3-acetyl-7-methyl-5-(2-methylpyrimidin-5-yl)-1H-pyrazolo[3,4-c]pyridin-1-yl)acetyl)-N-(3-chloro-2-fluorobenzyl)-3-azabicyclo[3.1.0]hexane-2-carboxamide] was tested. Which pIC50 did it give?
Answer: > 6.00

Question: With CC(=O)c1nn(CC(=O)N2C[C@H]3C[C@H]3[C@H]2C(=O)NCc2cccc(Cl)c2F)c2ccc(-c3cnc(C)nc3)cc12 [Compound 412, (1R,2S,5S)-3-(2-(3-acetyl-5-(2-methylpyrimidin-5-yl)-1H-indazol-1-yl)acetyl)-N-(3-chloro-2-fluorobenzyl)-3-azabicyclo[3.1.0]hexane-2-carboxamide] as the compound, how does the pIC50 read?
Answer: > 6.00

Question: With CC(=O)c1nn(CC(=O)N2C[C@H]3C[C@H]3[C@H]2C(=O)NCc2cccc(Cl)c2F)c2c(C)cc(-c3cnc(C)nc3)cc12 [Compound 413] as the compound, how does the pIC50 read?
Answer: > 6.00

Question: With CC(=O)c1nn(CC(=O)N2[C@H](C(=O)Nc3nc(Br)ccc3C)C[C@@]3(CN(C(C)C)C(C)C)C[C@@H]23)c2c(C)cc(-c3cnc(C)nc3)cc12 [Compound 415, (1R,3S,5R)-2-(2-(3-acetyl-7-methyl-5-(2-methylpyrimidin-5-yl)-1H-indazol-1-yl)acetyl)-N-(6-bromo-3-methylpyridin-2-yl)-5-((diisopropylamino)methyl)-2-azabicyclo[3.1.0]hexane-3-carboxamide] as the compound, how does the pIC50 read?
Answer: > 6.00

Question: How did the pIC50 turn out when CC(=O)c1cn(CC(=O)N2[C@H](C(=O)Nc3nc(Br)ccc3C)C[C@@]3(C)C[C@@H]23)c2ccc(-c3cnc(C)nc3)cc12 [Compound 416, (1R,3S,5R)-2-(2-(3-acetyl-5-(2-methylpyrimidin-5-yl)-1H-indol-1-yl)acetyl)-N-(6-bromo-3-methylpyridin-2-yl)-5-methyl-2-azabicyclo[3.1.0]hexane-3-carboxamide] was run?
Answer: > 6.00

Question: CC(=O)c1nn(CC(=O)N2C[C@@](F)(CF)C[C@H]2C(=O)Nc2nc(Br)c(F)cc2C)c2c(C)nc(-c3cnc(C)nc3)cc12 [Compound 417, (2S,4R)-1-(2-(3-acetyl-7-methyl-5-(2-methylpyrimidin-5-yl)-1H-pyrazolo[3,4-c]pyridin-1-yl)acetyl)-N-(6-bromo-5-fluoro-3-methylpyridin-2-yl)-4-fluoro-4-(fluoromethyl)pyrrolidine-2-carboxamide] was tested. Which pIC50 did it give?
Answer: > 6.00

Question: How did the pIC50 turn out when CC(=O)c1nn(CC(=O)N2C[C@@](F)(CF)C[C@H]2C(=O)Nc2cncc(Br)n2)c2c(C)nc(-c3cnc(C)nc3)cc12 [Compound 418, (2S,4R)-1-(2-(3-acetyl-7-methyl-5-(2-methylpyrimidin-5-yl)-1H-pyrazolo[3,4-c]pyridin-1-yl)acetyl)-N-(6-bromopyrazin-2-yl)-4-fluoro-4-(fluoromethyl)pyrrolidine-2-carboxamide] was run?
Answer: > 6.00

Question: CC(=O)c1nn(CC(=O)N2C[C@](F)(Cn3ccnn3)C[C@H]2C(=O)Nc2nc(Br)ccc2C)c2ccc(-c3cnc(C)nc3)cc12 [Compound 419] was tested. Which pIC50 did it give?
Answer: > 6.00

Question: CC(=O)c1nn(CC(=O)N2C[C@](F)(CN(C)C)C[C@H]2C(=O)Nc2nc(Br)ccc2C)c2ccc(-c3cnc(C)nc3)cc12 [Compound 420, (2S,4R)-1-(2-(3-acetyl-5-(2-methylpyrimidin-5-yl)-1H-indazol-1-yl)acetyl)-N-(6-bromo-3-methylpyridin-2-yl)-4-((dimethylamino)methyl)-4-fluoropyrrolidine-2-carboxamide] was tested. Which pIC50 did it give?
Answer: 5.00 to 6.00

Question: With CC(=O)c1nn(CC(=O)N2C[C@](F)(CF)C[C@H]2C(=O)Nc2nc(Br)ccc2C)c2ccc(-c3cnc(C)nc3)cc12 [Compound 422, (2S,4S)-1-(2-(3-acetyl-5-(2-methylpyrimidin-5-yl)-1H-indazol-1-yl)acetyl)-N-(6-bromo-3-methylpyridin-2-yl)-4-fluoro-4-(fluoromethyl)pyrrolidine-2-carboxamide] as the compound, how does the pIC50 read?
Answer: > 6.00

Question: With CC(=O)c1nn(CC(=O)N2[C@H](C(=O)Nc3nc(Br)c(F)cc3C)C[C@@]3(Cc4nc(C)no4)C[C@@H]23)c2c(C)nc(-c3cnc(C)nc3)cc12 [Compound 423, (1R,3S,5R)-2-(2-(3-acetyl-7-methyl-5-(2-methylpyrimidin-5-yl)-1H-pyrazolo[3,4-c]pyridin-l-yl)acetyl)-N-(6-bromo-5-fluoro-3-methylpyridin-2-yl)-5-((3-methyl-1,2,4-oxadiazol-5-yl)methyl)-2-azabicyclo[3.1.0]hexane-3-carboxamide] as the compound, how does the pIC50 read?
Answer: > 6.00

Same assay, conditions: Table 8; Factor D 80 nM, substrate Z-L-Lys-SBz; read-out: IC50

Question: How did the pIC50 turn out when COC(=O)CCCCCCCCCCCCCCCCC(=O)N[C@@H](CCC(=O)NCCOCCOCC(=O)NCCOCCOCC(=O)NCc1ncc(-c2cc(C)c3c(c2)c(C(C)=O)nn3CC(=O)N2[C@H](C(=O)Nc3nc(Br)ccc3C)C[C@@]3(C)C[C@@H]23)cn1)C(=O)O [Compound 403] was run?
Answer: > 6.00

Question: With CC(=O)c1nn(CC(=O)N2[C@H](C(=O)Nc3nc(Br)ccc3C)C[C@@]3(C)C[C@@H]23)c2c(C)cc(-c3cnc(CNC(=O)COCCOCCNC(=O)COCCOCCNC(=O)CC[C@H](NC(=O)CCCCCCCCCCCCCCCCC(=O)O)C(=O)O)nc3)cc12 [Compound 404] as the compound, how does the pIC50 read?
Answer: > 6.00

Question: How did the pIC50 turn out when COC(=O)CCCCCCCCCCCCCCCCC(=O)N[C@@H](CCC(=O)NCCOCCOCC(=O)NCCOCCOCC(=O)NCc1ncc(-c2cc3c(C(C)=O)nn(CC(=O)N4[C@H](C(=O)Nc5nc(Br)ccc5C)C[C@@]5(C)C[C@@H]45)c3cn2)cn1)C(=O)OC [Compound 405] was run?
Answer: > 6.00

Question: With COC(=O)CCCCCCCCCCCCCCCCC(=O)N[C@@H](CCC(=O)NCCOCCOCC(=O)NCCOCCOCC(=O)NC[C@@]12C[C@@H](C(=O)Nc3nc(Br)ccc3C)N(C(=O)Cn3nc(C(C)=O)c4cc(-c5cnc(C)nc5)ncc43)[C@@H]1C2)C(=O)OC [Compound 406] as the compound, how does the pIC50 read?
Answer: > 6.00

Question: CC(=O)c1nn(CC(=O)N2[C@H](C(=O)Nc3nc(Br)ccc3C)C[C@@]3(C)C[C@@H]23)c2cnc(-c3cnc(CNC(=O)COCCOCCNC(=O)COCCOCCNC(=O)CC[C@H](NC(=O)CCCCCCCCCCCCCCCCC(=O)O)C(=O)O)nc3)cc12 [Compound 414] was tested. Which pIC50 did it give?
Answer: > 6.00
